Measurements taken from US6447997B1, “Gene coding for GADD153 as a clinical diagnostic and prognostic in cancer therapy” (Research Development Foundation, priority 1997, dated 2002).

Experiments:
UMSCC10b cells = assay: Sensitivity to cDDP in vitro, clonogenic assay; assay type: cell-based, human; conditions: parental cell line, 1 h exposure
Description: The sensitivity of the UMSCC10b cell line and its cDDP-resistant variants to cDDP was determined by clonogenic assay using a 1 h cDDP exposure. A single-cell suspension was plated into 60 mm tissue culture dishes (Corning) at 300 cells per dish in fresh medium. After incubation for 24 h at 37° C., cells had attached to the plates and cDDP was added to the cells and incubated for 1 h following which the cells were washed twice with phosphate-buffered saline and 5 ml of fresh medium was added. Cultures were incubated for an additional 13-15 days following which there were fixed with methanol, stained with Giemsa, and clusters of >50 cells were scored as colonies. cDDP-selected cells were cultured in drug-free media for 2 weeks before cDDP sensitivity was determined by clonogenic assay.

GADD153 mRNA = GADD153 mRNA level in UMSCC10b cells and cDDP-resistant sublines after cDDP exposure, RT-PCR; assay type: cell-based, human
Description: In order to permit use of needle aspiration biopsies of tumors, the highly sensitive technique of RT-PCR rather than the less sensitive technique of Northern blot analysis was utilized throughout for quantitation of mRNA. The magnitude of the change in GADD153 mRNA level as a function of cisplatin (cDDP) concentration was determined by treating UMSCC10b cells with 0.1, 1, 10, or 100 μM cDDP for 1 h and quantifying GADD153 mRNA in untreated and treated cells harvested at 24 h by RT-PCR. The procedure is detailed in the attached examples. The results in FIG. 1 indicate that a concentration-dependent magnitude of increase in GADD153 mRNA levels reached 6-fold at the highest cDDP concentration tested. FIG. 2 depicts the time course of increase in GADD153 following a 1 h exposure to 100 μM cDDP. An increase in GADD153 mRNA level was evident at 12 h after cDDP exposure, and the peak occurred at 24 h followed by a decline to baseline levels by 96 h. β-ACTIN was used as an internal standard to normalize the data.
Without being held to a particular mechanism of action, the present inventors believe that the magnitude of increase in GADD153 mRNA level reflects the extent of tumor cell damage in a tumor treated with a chemotherapeutic agent. Supportive evidence was obtained using sublines of UMSCC10b selected for cDDP resistance. The parental cells, the 3-fold resistant subline UMSCC10b-Pt/S6 (15,16), and the 6-fold resistant subline UMSCC10b-Pt/S15 (15,16) were exposed to 2, 7, 12 μM cDDP for 1 h. These levels of exposure correspond to the IC10, IC50, and IC70 for the parental cell line, respectively.
To assure that the resistant variants had not lost their capacity to activate the GADD153 gene, and to validate the change in GADD153 level as a molecular marker of tumor injury in drug resistant as well as sensitive cells, the effect of cDDP applied at equitoxic concentrations was compared between the parental cells and the two resistant sublines.
To determine the time course of the change in GADD153 mRNA level, UMSCC10b cells were incubated with 100 μM cDDP for 1 h and total RNA was extracted at 0, 1, 2, 6, 12, 24, 48, 72 and 96 h after treatment. To analyze the effect of cDDP concentration on the expression of GADD153 , UMSCC10b cells were incubated for 1 h with various cDDP concentrations (0, 0.1, 1, 10, 100 and 1000 μM) and RNA was extracted 24 h after cDDP exposure.
UMSCC10b cells were harvested in 10 ml of denaturing solution (4 M guanidinium thiocyanate, 25 mM sodium citrate, pH 7, 0.5% sarcosyl, and 0.1 M 2-mercaptoethanol. After adding 1 ml of 2 M sodium acetate (pH 4), 10 ml of water-saturated phenol (pH 4) and 2 ml of chloroform:isoamyl alcohol (49:1) to the denatured cells, they were mixed thoroughly, placed on ice for 15 min, and centrifuged at 2800 rpm for 20 min at 4° C. The aqueous phase was collected and mixed with 10 ml of isopropyl alcohol, placed for 1 h at −20° C. and centrifuged. The pellet was dissolved in 1.8 ml of denaturing solution and 2 ml of isopropyl alcohol, placed for 1 h at −20° C. and centrifuged. The pellet was washed with 1 ml of 80% ethanol and then centrifuged at 5000 rpm for 10 min at room temperature. The RNA pellet was dried for 20 min in a tissue culture hood and resuspended in 100 μl of DEPC-treated water. Of this solution, 50 μl was used immediately for cDNA synthesis.
GADD153 message levels were quantified using a modification of the technique reported by Horikoshi et al (20). Total RNA acquired from the biopsies or xenografts was reverse-transcribed using random hexamers to produce cDNA (20,21,22). Serial dilutions of the CDNA were made and 5 μl of each dilution was placed in a sterile 0.5 ml Eppendorf tube. […]

[1] = UMSCC10b cells, 1 h exposure to 100 μM cDDP

`[NH2][Pt]([NH2])([Cl])[Cl]` [cDDP, cisplatin] was tested. Which IC10 (UMSCC10b cells) did it give?
The IC10 was 2 µM.

And the IC50 (UMSCC10b cells)?
Its IC50 is 7 µM.

What about the IC70 (UMSCC10b cells) of the same molecule?
Its IC70 is 12 µM.

What about the “magnitude of the increase in GADD153 mRNA level” value (GADD153 mRNA; 3-fold resistant variant UMSCC10b-Pt/S6, 2, 7, 12 μM cDDP for 1 h (equimolar)) of the same molecule?
Its value is “lower than in the parental cells”.

And the “expression of GADD153” value (GADD153 mRNA; 6-fold resistant variant UMSCC10b-Pt/S15, 2, 7, 12 μM cDDP for 1 h (equimolar))?
The value was “did not increase above its baseline level”.

And the “time at which increase in GADD153 mRNA level was evident” value (GADD153 mRNA; [1])?
The value was 12 h.

What about the “time of decline of GADD153 mRNA to baseline levels” value (GADD153 mRNA; [1]) of the same molecule?
The value was no more than 96 h.

And the “time of peak GADD153 mRNA level” value (GADD153 mRNA; [1])?
Its value is 24 h.

What about the “magnitude of increase in GADD153 mRNA levels” value (GADD153 mRNA; UMSCC10b cells, 1 h exposure, highest cDDP concentration tested (100 μM), harvested at 24 h) of the same molecule?
Its value is 6 fold.

And the “change in expression of GADD153 at equitoxic concentrations” value (GADD153 mRNA; parental cells and two resistant sublines, IC10, IC50, IC70)?
Its value is “no difference between the cell lines”.
